We go through three compounds from US8980933B2, “Combretastatin analogs for use in the treatment of cancer” (Universitat Bayreuth, priority 2010, dated 2015).

In brackets after ≈: the same amount, converted by molar mass.

Series [1] concerns H12.1 germ cell tumor, 1411HP germ cell tumor, A2780 ovarian carcinoma, HT29 colon carcinoma, DLD1 colon carcinoma, HCT8 colon carcinoma. Kind of series: SRB-cytotoxicity assay in a panel of tumor cell lines. It is filed as cell-based, human. As to conditions: H12.1, 1411HP. The method, then: The cytotoxic activity of 5b was established by standard colorimetric tests (SRB- and MTT-assays) against various tumor cell lines of different entities. For the SRB cytotoxicity assay, dose-response curves of the testicular germ cell tumor cell lines exposed to drug concentrations of 0.001-10 μM were established using the sulforhodamine-B (SRB) microcuiture colorimetric assay (Papazisis et al. Optimization of the sulforhodamine B colorimetric assay. J. Immunol. Methods 1997, 208, 151-158) and performed as described in: Müller et al. Failure of activation of caspase-9 induces a higher threshold for apoptosis and cisplatin resistance in testicular cancer. Cancer Res. 2003, 63, 513-521. Briefly, cells were seeded into 96-well plates on day 0, at cell densities previously determined to ensure exponential cell growth during the period of the experiment. On day 1, cells were treated with the drugs dissolved in medium to give the appropriate concentrations for indicated times and the percentage of surviving cells relative to untreated controls was determined on day 5.
The compounds 5b, 6b, 5f and 6f as well as the reference compound 25f (Wang et al.) were furthermore subjected to an SRB-cytotoxicity assay in a panel of tumor cell lines (H12.1 germ cell tumor, 1411HP germ cell tumor, A2780 ovarian carcinoma, HT29 colon carcinoma, DLD1 colon carcinoma, HCT8 colon carcinoma).
(In general: Sulforhodamine B stains cellular protein and so reports cell mass.)

Series [2] relates to 1411HP germ cell tumor xenografts. Briefly: Nude mouse xenograft model of resistant 1411HP. It is filed as in vivo. The following applies: 1411HP xenograft model. On the procedure: In vivo antitumor activity and tolerability of compounds 5b and 6b of the invention were studied in a nude mouse xenograft model of the resistant germ cell tumor cell line 1411HP employing Athymic Nude-Fox n1 nu/nu mice (Harlan und Winkelmann, Borchen, Germany).
The tests were carried out as follows. The mice were kept under pathogen-free conditions, fed on an autoclaved standard diet and given free access to sterilized water. Each of five mice were administered a 150 μL phosphate buffered saline suspension of 10 million 1411HP cells into the left flank to generate subcutaneous xenograft tumors. After 4 weeks one group of two mice bearing 1411HP xenografts with a volume of ca. 1 cm^3 were injected i.p. with a single dose of 30 mg/kg body weight of 5b or 6b, respectively. Two mice in the second group with xenografts of a volume of ca. 2.5 cm^3 were injected i.p. with 20 mg/kg body weight of 5b on two consecutive days. Tumor volumes were calculated by caliper measurement using the formula a^2×b×0.5 with a being the short and b the long dimension. Body weight was assessed twice weekly and daily while under therapy.

Series [3] deals with A2780 ovarian carcinoma xenografts. Briefly: A2780 ovarian carcinoma xenograft model. It is filed as in vivo, mouse.
Series [4] is described as follows: Toxicity / tolerability in mice. Format: in vivo. The method, then:
Prior to testing compound 5b, healthy animals of this type were treated with an ascending range of doses of 5b in order to establish a toxicity profile. […] Suitable dosages were then administered in further tests in a nude mouse xenograft model of a pair of germ cell tumor cell lines, the chemoresistant cell line 1411HP and the chemosensitive cell line H12.1. These cell lines retain their individual in vitro chemosensitivities to cisplatin when grown as xenograft tumors and so may serve as a model of the clinical situation of resistance to chemotherapy (Mueller et al. Cancer Res. 2003; Mueller et al. Tumor Biol. 2006).
Compounds 5b, 6b and 6f were also tested in terms of feasibility of oral administration. Mice received a single dose of 40 mg/kg body weight of 5b, 6b or 6f, respectively. […] Then compounds 6b or 6f were given peroral as dual-dose application on two consecutive days in accordance to the i.p. treatment scheme used for the regression trials but with a 2-fold higher dose of 2×40 mg/kg body weight.

A further series has as its system L929 fibroblasts. Briefly: Cytotoxicity, L929. It is filed as cell-based. The following applies: Mus musculus, read-out: IC50 L-929. On the procedure: (§1) The compounds 9a, 9b and 9c, which are exemplary compounds of formula (III) according to the present invention, as well as the reference compound 25f were tested in a similar manner.
The next series deals with KB-3-1 cervix carcinoma. Briefly: Cytotoxicity, KB-3-1. As to conditions: Homo sapiens. It is filed as cell-based. On the procedure:
as §1

Series [5] concerns PtK-2 opossum kidney cells. Briefly: Cytotoxicity, PtK-2. It is filed as cell-based. The following applies: PtK2; PtK-2 opossum kidney cells (non-malign). The method, then:
as §1

A further series deals with NHDF fibroblasts. Briefly: Cytotoxicity, NHDF. It is filed as cell-based. The following applies: Homo sapiens; NHDF fibroblasts (non-malign). The method, then: as §1
Another series deals with HUVEC cells. Briefly: Minimal inhibitory concentration in HUVEC. It is filed as cell-based. On the procedure: as §1

Regarding `CCOc1ccc(-c2c(-c3cc(Br)c(OC)c(OC)c3)ncn2C)cc1N` [compound 6f, 1-methyl-5-(3-amino-4-ethoxyphenyl)-4-(3-bromo-4,5-dimethoxyphenyl)-imidazole], the “in vitro cytotoxicity compared to 25f” value in [1] is listed as “further improvement of cytotoxicity”. In addition, the vascular disrupting effect entry in [2] and in [3] was “vascular disrupting activity” in each case. Also, the “toxicity after oral administration” value in [4] (peroral dual-dose 2×40 mg/kg on two consecutive days) is on record as “no signs of toxicity were observed”; in [4] (single dose 40 mg/kg oral) it was “No signs of toxicity were observed”; in series [4] (single dose 60 mg/kg peroral) it was “tolerated symptom-free”.
As to `CCOc1ccc(-c2c(-c3cc(Cl)c(OC)c(OC)c3)ncn2C)cc1N` [compound 5f, 1-methyl-5-(3-amino-4-ethoxyphenyl)-4-(3-chloro-4,5-dimethoxyphenyl)-imidazole], in series [1], the “in vitro cytotoxicity compared to 25f” value is listed as “further improvement of cytotoxicity”. In addition, the vascular disrupting effect entry in [2] and in [3] was “vascular disrupting activity” throughout.
A word on the IC50: it is the concentration at which inhibition is half-maximal. `COc1ccc(-c2ncn(C)c2-c2cc(Br)c(OC)c(OC)c2)cc1F` [9a, 1-Methyl-5-(3-bromo-4,5-dimethoxyphenyl)-4-(3-fluoro-4-methoxyphenyl)imidazole]: the IC50 in the series on L929 fibroblasts was determined as 24 nM; in the series with KB-3-1 cervix carcinoma, 4.4 nM; in series [5], 437 nM; in the series on NHDF fibroblasts, 175 nM. For the same compound, the “minimal inhibitory concentration (MIC) HUVEC” value with HUVEC cells was found to be 0.109 µM (≈ 0.0459 µg/mL).
